{
  "source": "patent US20200281956A1",
  "about": "“ANTIBACTERIAL COMPOSITION CONTAINING A DEOXYHEXOSE ALKYL MONOACETAL OR MONOETHER” (TEREOS STARCH & SWEETENERS BELGIUM, priority 2015, published 2020)",
  "key": {"[1]": {"system": "L. monocytogenes", "details": "literature, in words; cited from earlier work"}, "[2]": {"system": "S. aureus", "details": "literature, in words; cited from earlier work"}, "[3]": {"system": "S. aureus", "test": "MIC on S. aureus staphylococcal strains (microplate dilution, CLSI)", "assay_type": "cell-based, Staphylococcus aureus", "excerpt": "(§1) The strains tested are reference strains and cultures that are multi-antibiotic resistant; these are clinical strains that were isolated at the “Hospice de Lyon” and are as follows: • Staphylococcus S. aureus: ATCC® 29213™, ATCC 25923, • Methicillin-resistant S. aureus staphylococcus strains (Lac-Deleo USA 300), (MU 3), (HT 2004-0012), LY 199-0053, (HT 2002-0417), (HT 2006-1004), • Daptomycin-resistant S. aureus staphylococcus strains (ST 2015-0188) (ST 2014 1288), (ST 2015-0989). • Enterococci: E. faecalis (ATCC® 29212™, clinical strains of E. faecalis enterococcus, isolated from urine: strain 015206179901 (hereinafter 9901), strain 015205261801 (hereinafter 1801) • Enterococci: E. faecium (CIP 103510), clinical strains of E. faecium enterococcus: Van A 0151850763 (hereinafter Van A); strain 015 205731401 (hereinafter 1401), • Listeria: L. monocytogenes (CIP 103575), clinical strains isolated from blood culture (015189074801, LM1), strain isolated from cerebrospinal fluid (015170199001, LM2), clinical strain isolated from blood culture (015181840701, LM3).\n(§2) The cultures studied, freshly isolated (after incubation on blood agar at 37° C. for 18 h), are taken up in sterile water (10 ml) until a 0.5 McFarland (Mc), i.e. 1 to 2×10^8 CFU (bacteria)/cm^3, suspension is obtained. The bacterial suspension was then diluted in order to obtain a final concentration of 1×10^6 CFU/cm^3.\n(§3) Each well contains a final identical amount of Mueller-Hinton medium (rich medium enabling bacterial culture) and of bacteria of 0.5×10^6 CFU/cm^3.\nThe compounds of interest to be tested are dissolved in ethanol or DMSO at 25 mg/ml before being diluted, with the dilution being doubled each time, to different concentrations. On the multi-well plate, a first series was provided comprising the culture medium without the compound of interest to be tested. This corresponds to the growth control (control wells). These controls serve as a reference for comparing bacterial growth with those of the following wells comprising different concentrations of the compound of interest to be tested. The second series of wells comprises the parent solution of the compound of interest to be tested for a concentration in the well of 256 mg/l (7 mM). Each series of wells was diluted, with the dilution being doubled each time, until the last series for a final concentration of 0.25 mg/l (0.0007 mM). Each concentration is duplicated within the same plate. The plate is incubated for 18 h at 37° C. […] In the case of antibacterial activity, bacterial growth is inhibited which is reflected by the absence of appearance of cloudiness or bacterial pellet.\nThe minimum inhibitory […] (MIC) are determined on Gram-positive bacterial strains according to the recommendations of the “Clinical Laboratory Standards Institute” (Clinical-Laboratory-Standards-Institute, 6th ed. Approved standard M100-S17. CLSI, Wayne, Pa., 2007).\nas §2, with “i.e.” for “i.e. 1”, “10^8” for “2×10^8”, “10^6” for “1×10^6”"}, "[4]": {"system": "E. faecalis", "test": "MIC on E. faecalis enterococcal strains (microplate dilution, CLSI)", "assay_type": "cell-based, Enterococcus faecalis", "excerpt": "as §1, §2, §3\n(§4) The compounds of interest to be tested are dissolved in ethanol or DMSO at 25 mg/ml before being diluted, with the dilution being doubled each time, to different concentrations. […]\n(§5) The minimum inhibitory […] (MIC) are determined on Gram-positive bacterial strains according to the recommendations of the “Clinical Laboratory Standards Institute” (Clinical-Laboratory-Standards-Institute, 6th ed. Approved standard M100-S17. CLSI, Wayne, Pa., 2007). […]"}, "[5]": {"system": "E. faecium", "test": "MIC on E. faecium enterococcal strains (microplate dilution, CLSI)", "assay_type": "cell-based, Enterococcus faecium", "excerpt": "as §1, §2, §3, §4, §5"}, "[6]": {"system": "L. monocytogenes", "test": "MIC on strains of Listeria (microplate dilution, CLSI)", "assay_type": "cell-based, Listeria monocytogenes", "excerpt": "as §1, §2, §3\nThe compounds of interest to be tested are dissolved in ethanol or DMSO at 25 mg/ml before being diluted, with the dilution being doubled each time, to different concentrations. On the multi-well plate, a first series was provided comprising the culture medium without the compound of interest to be tested. This corresponds to the growth control (control wells). These controls serve as a reference for comparing bacterial growth with those of the following wells comprising different concentrations of the compound of interest to be tested. The second series of wells comprises the parent solution of the compound of interest to be tested for a concentration in the well of 256 mg/l (7 mM). Each series of wells was diluted, with the dilution being doubled each time, until the last series for a final concentration of 0.25 mg/l (0.0007 mM). Each concentration is duplicated within the same plate. The plate is incubated for 18 h at 37° C. […]\nas §5"}, "[7]": {"system": "esterases", "details": "cited from earlier work"}},
  "data": [
    {"compound": "CCCCCCCCCCCC1OCC2O[C@H](OC)C(O)C(O)[C@H]2O1", "note": "(stereo partly drawn) [compound 1d, Methyl 4,6-O-dodecylidene-α-D-galactopyranoside]", "values": [
      {"measurement": "melting point", "result": 115, "unit": "°C"}
    ]},
    {"compound": "Dodecanoyl sucrose", "values": [
      {"measurement": "activity against L. monocytogenes", "setting": "[1]", "result": "particularly active"},
      {"measurement": "inhibition of the growth of S. aureus", "setting": "[2]", "result": "weakly inhibiting the growth"}
    ]},
    {"compound": "3-O-Dodecyl-1,4-D-sorbitan, 5-O-dodecyl-1,4-D-sorbitan and 6-O-dodecyl-1,4-D-sorbitan [reference compound]", "values": [
      {"measurement": "Minimum inhibitory concentration (MIC)", "setting": "[3]; S. aureus ATCC 25923, reference strain", "result": 32, "unit": "µg/mL"},
      {"measurement": "Minimum inhibitory concentration (MIC)", "setting": "[3]; S. aureus ATCC 29213, reference strain", "result": 32, "unit": "µg/mL"},
      {"measurement": "Minimum inhibitory concentration (MIC)", "setting": "[3]; daptomycin-resistant S. aureus ST 2014 1288", "result": 64, "unit": "µg/mL"},
      {"measurement": "Minimum inhibitory concentration (MIC)", "setting": "[3]; daptomycin-resistant S. aureus ST 2015-0188", "result": 64, "unit": "µg/mL"},
      {"measurement": "Minimum inhibitory concentration (MIC)", "setting": "[3]; daptomycin-resistant S. aureus ST 2015-0989", "result": 256, "unit": "µg/mL"},
      {"measurement": "Minimum inhibitory concentration (MIC)", "setting": "[3]; methicillin-resistant S. aureus HT 2002-0417", "result": 32, "unit": "µg/mL"},
      {"measurement": "Minimum inhibitory concentration (MIC)", "setting": "[3]; methicillin-resistant S. aureus HT 2004-0012", "result": 32, "unit": "µg/mL"},
      {"measurement": "Minimum inhibitory concentration (MIC)", "setting": "[3]; methicillin-resistant S. aureus HT 2006-1004", "result": 32, "unit": "µg/mL"},
      {"measurement": "Minimum inhibitory concentration (MIC)", "setting": "[3]; methicillin-resistant S. aureus LY 199-0053", "result": 32, "unit": "µg/mL"},
      {"measurement": "Minimum inhibitory concentration (MIC)", "setting": "[3]; methicillin-resistant S. aureus Lac-Deleo USA 300", "result": 32, "unit": "µg/mL"},
      {"measurement": "Minimum inhibitory concentration (MIC)", "setting": "[3]; methicillin-resistant S. aureus MU 3", "result": 64, "unit": "µg/mL"},
      {"measurement": "Minimum inhibitory concentration (MIC)", "setting": "[4]; E. faecalis ATCC 29212", "result": 8, "unit": "µg/mL"},
      {"measurement": "Minimum inhibitory concentration (MIC)", "setting": "[4]; E. faecalis clinical strain 1801 (urine)", "result": 8, "unit": "µg/mL"},
      {"measurement": "Minimum inhibitory concentration (MIC)", "setting": "[4]; E. faecalis clinical strain 9901 (urine)", "result": 16, "unit": "µg/mL"},
      {"measurement": "Minimum inhibitory concentration (MIC)", "setting": "[5]; E. faecium CIP 103510", "result": 16, "unit": "µg/mL"},
      {"measurement": "Minimum inhibitory concentration (MIC)", "setting": "[5]; E. faecium clinical strain 1401", "result": 8, "unit": "µg/mL"},
      {"measurement": "Minimum inhibitory concentration (MIC)", "setting": "[5]; E. faecium clinical strain Van A", "result": 16, "unit": "µg/mL"},
      {"measurement": "Minimum inhibitory concentration (MIC)", "setting": "[6]; L. monocytogenes CIP 103575", "result": 32, "unit": "µg/mL"},
      {"measurement": "Minimum inhibitory concentration (MIC)", "setting": "[6]; L. monocytogenes clinical strain LM1 (blood culture)", "result": 16, "unit": "µg/mL"},
      {"measurement": "Minimum inhibitory concentration (MIC)", "setting": "[6]; L. monocytogenes clinical strain LM2 (cerebrospinal fluid)", "result": 32, "unit": "µg/mL"},
      {"measurement": "Minimum inhibitory concentration (MIC)", "setting": "[6]; L. monocytogenes clinical strain LM3 (blood culture)", "result": 32, "unit": "µg/mL"}
    ]},
    {"compound": "CCCCCCCCCCCC(=O)OCC(O)CO", "note": "(stereo not shown) [monolaurin]", "values": [
      {"measurement": "degradation / half-life (ester function sensitive to esterases)", "setting": "[7]", "result": "quickly degraded"}
    ]}
  ]
}
